Consider five molecules from patent US12356984B2, “Paraquat formulation” (priority 2018, dated 2025).

The data set is described as follows: Compatibility (precipitation) of polyvinylalcohol-acetate copolymer with charged active ingredients. Format: physicochemical. To be noted: for Formulability as oil-in-water emulsion (EW): Mowiol 4-88/SPAN 40 and TWEEN 40 system; for Behaviour of polyvinylalcohol when formulated with the charged active ingredient: oil in water emulsion / solution of the active ingredient. From the text:
One of the challenges faced when formulating pesticidal compositions is the compatibility of active ingredients with additional formulation ingredients, such as surfactants. This is especially a challenge when the active ingredient is highly charged.

For `CP(=O)(O)CCC(N)C(=O)O.N` (stereo not shown) [Ammonium glufosinate], the “Quantity at the maximum ratio of Mowiol 4-88 to glufosinate and water at which the copolymer does not precipitate” value (ammonium glufosinate / Mowiol 4-88 (20% w/w in water) / water 90.15% w/w) is 8.49 % w/w. For `O=C(O)CNCP(=O)([O-])O.[K+]` [Potassium glyphosate], the “Quantity at the maximum ratio of Mowiol 4-88 to glyphosate and water at which the copolymer does not precipitate” value (potassium glyphosate / Mowiol 4-88 (20% w/w in water) / water 93.48% w/w) was 5.76 % w/w. On to `CP(=O)(O)CCC(N)C(=O)O` (stereo not shown) [glufosinate], for which the “Formulability as oil-in-water emulsion (EW)” value is given as “cannot be formulated as an oil-in-water emulsion (EW) at a commercially acceptable concentration” and the “Behaviour of polyvinylalcohol when formulated with the charged active ingredient” value (from here on “Behaviour of polyvinylalcohol”) is recorded as “precipitates out of solution”.

Consider `O=C(O)CNCP(=O)(O)O` [glyphosate], for which the “Formulability as oil-in-water emulsion (EW)” value was “cannot be formulated as an EW at a commercially acceptable concentration” and the “Behaviour of polyvinylalcohol” value is given as “precipitates out of solution”.

Take `C[n+]1ccc(-c2cc[n+](C)cc2)cc1` [paraquat]: the “Behaviour of polyvinylalcohol” value was “readily dissolves”.
